Results on eight molecules are retold here after ChEMBL document CHEMBL4616702 (ACS Med Chem Lett, 2020).

A short description of data set [1]: Half life in human liver microsomes in presence of NADPH by LC/MS/MS method. In kind it is ADME, Microsome. In general terms: Liver microsomes are vesicles of endoplasmic reticulum, rich in cytochrome P450 enzymes.
Data set [2] is described as follows: Half life in mouse liver microsomes in presence of NADPH by LC/MS/MS method. The data set is classed as ADME, Microsome. The settings on record: for half-life: liver microsomes.
The nature of data set [3]: Half life in rat liver microsomes in presence of NADPH by LC/MS/MS metho. The data set is classed as ADME, Microsome. The settings on record: for half-life: liver microsomes; for t1/2: microsomes.
Data set [4] is described as follows: AUC (0 to 24 hrs) in Balb/c mouse at 10 mg/kg, po. The data set is classed as ADME, organism-based. More on the design: dose 10 mg/kg, time < 24 hr, route oral. Particulars: in vivo.
Data set [5] in a line: Drug concentration in Balb/c mouse at 10 mg/kg, po measured upto 24 hrs. In kind it is ADME, organism-based. Particulars: in vivo, read-out: Drug uptake.
The nature of data set [6]: Cmax in Balb/c mouse at 10 mg/kg, po. The settings on record: in vivo. On the set-up: dose 10 mg/kg, route oral. In kind it is ADME, organism-based.

For the molecule `O=C(O)[C@H]1CC[C@H](C(=O)N2CC[C@@]3(S(=O)(=O)c4ccc(F)cc4)c4ccc(C(F)(C(F)(F)F)C(F)(F)F)cc4CC[C@@H]23)CC1`, the half-life in data set [1], in data set [2] and in data set [3] was more than 120 min each time.

As to `O=C(N1CC[C@@]2(S(=O)(=O)c3ccc(F)cc3)c3ccc(C(F)(C(F)(F)F)C(F)(F)F)cc3CC[C@@H]12)C1(O)CCS(=O)(=O)CC1`, the half-life in data set [1], in data set [2] and in data set [3] was more than 120 min each time.

In the case of `C[C@H]1C[C@H](C(=O)O)CC[C@H]1C(=O)N1CC[C@@]2(S(=O)(=O)c3cccc(F)c3)c3ccc(C(F)(C(F)(F)F)C(F)(F)F)cc3CC[C@@H]12`, the half-life (usually the time needed for the level to fall by half in the phase considered) in data set [1] was more than 120 min; in data set [2], more than 120 min; in data set [3], 107 min.

In the case of `C[C@H]1C[C@H](C(=O)N2CC[C@@]3(S(=O)(=O)c4cccc(F)c4)c4ccc(C(F)(C(F)(F)F)C(F)(F)F)cc4CC[C@@H]23)CC[C@H]1C(=O)O`, the half-life in data set [1], in data set [2] and in data set [3] was more than 120 min in each case. In addition, the AUC(0-t) (commonly exposure summed from dosing to a finite time, without extrapolation to infinity) at 24 h in data set [4] is 72 µM·h. In addition, the concentration at 24 h in data set [5] is 780 nM. Besides, the Cmax (in general, the peak of the concentration-time curve) in data set [6] was determined as 12 µM.

As for `C[C@@H]1C[C@H](C(=O)N2CC[C@@]3(S(=O)(=O)c4ccc(F)cc4)c4ccc(C(F)(C(F)(F)F)C(F)(F)F)cc4CC[C@@H]23)CC[C@H]1C(=O)O`, the half-life in data set [1] was more than 120 min; in data set [2] it was more than 120 min; in data set [3], 73 min. This molecule had an AUC(0-t) at 24 h in data set [4] of 134 µM·h. Moreover, in data set [5], the concentration at 24 h was determined as 2200 nM. In addition, in data set [6], the peak level (Cmax) was 9 µM.

Take `C[C@@H]1C[C@H](C(=O)O)CC[C@H]1C(=O)N1CC[C@@]2(S(=O)(=O)c3ccc(F)cc3)c3ccc(C(F)(C(F)(F)F)C(F)(F)F)cc3CC[C@@H]12`: the half-life in data set [1], in data set [2] and in data set [3] was more than 120 min in each case.

Turning to `C[C@H]1C[C@@H](C(=O)N2CC[C@@]3(S(=O)(=O)c4ccc(F)cc4)c4ccc(C(F)(C(F)(F)F)C(F)(F)F)cc4CC[C@@H]23)CCS1(=O)=O` (stereo in doubt; 3), the half-life in data set [1] and in data set [2] was more than 120 min in each case. Besides, in data set [3], the t1/2 was more than 120 min.

Regarding `C[C@H]1C[C@@H](C(=O)N2CC[C@@]3(S(=O)(=O)c4ccc(F)cc4)c4ccc(C(F)(C(F)(F)F)C(F)(F)F)cc4CC[C@@H]23)CCS1(=O)=O` (stereo in doubt; 4), the t1/2 in data set [2] (microsomes) is given as 98 min; in data set [3] it was 33 min.
